Results reported in ChEMBL document CHEMBL5226357, “Engineering Selectivity for Reduced Toxicity of Bacterial Kinase Inhibitors Using Structure-Guided Medicinal Chemistry” (ACS Med Chem Lett, 2021).
Converted amounts (≈) assume the structure as drawn.

Key:
[1] = molecular target: T1, Serine/threonine-protein kinase PknB (Mycobacterium tuberculosis, UniProt P9WI81); assay: Binding affinity to Mycobacterium tuberculosis recombinant N-terminal His-tagged PknB (1 to 331 residues) expressed in Escherichia coli DH5alpha cells by microscale thermophoresis analysis
T1 sequence (P9WI81 whole entry): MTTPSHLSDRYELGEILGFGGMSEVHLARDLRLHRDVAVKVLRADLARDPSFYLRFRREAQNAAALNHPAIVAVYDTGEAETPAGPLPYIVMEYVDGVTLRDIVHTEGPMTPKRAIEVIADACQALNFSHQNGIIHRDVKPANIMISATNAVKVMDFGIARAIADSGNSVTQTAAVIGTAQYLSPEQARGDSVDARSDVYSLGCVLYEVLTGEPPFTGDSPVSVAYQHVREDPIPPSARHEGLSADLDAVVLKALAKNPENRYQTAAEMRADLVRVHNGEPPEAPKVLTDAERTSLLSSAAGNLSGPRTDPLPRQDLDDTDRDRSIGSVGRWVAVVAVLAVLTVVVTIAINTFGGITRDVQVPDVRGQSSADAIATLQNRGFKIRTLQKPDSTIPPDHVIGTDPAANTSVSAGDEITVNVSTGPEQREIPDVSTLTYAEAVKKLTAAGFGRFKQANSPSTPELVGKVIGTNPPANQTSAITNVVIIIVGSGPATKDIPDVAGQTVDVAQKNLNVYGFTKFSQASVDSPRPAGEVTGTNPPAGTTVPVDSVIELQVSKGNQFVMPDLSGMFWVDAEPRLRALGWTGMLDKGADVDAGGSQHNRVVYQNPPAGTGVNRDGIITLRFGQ

[2] = molecular target: T1, Serine/threonine-protein kinase PknB; assay: Inhibition of Mycobacterium tuberculosis recombinant PknB (1 to 331 residues) expressed in Escherichia coli BL21-Rosetta cells using GarA and ATP as substrate preincubated with enzyme for 10 mins followed by substrate addition and measured after 1 hr by ATP-competitive biochemical assay
[3] = molecular target: Cyclin-dependent kinase 2/cyclin A (Homo sapiens, UniProt P24941); assay: Inhibition of human Cdk2/Cyclin A using Myelin basic protein as substrate by ATP competitive assay; format: toxicity
THP-1 = assay: Cytotoxicity against human THP-1 cells assessed as reduction in cell viability incubated for 72 hrs by CellTiter-Glo luminescent assay; format: toxicity, cell-based; conditions: thp-1, 72 h
[4] = test system: Mycobacterium tuberculosis; assay: Antimycobacterial activity against Mycobacterium tuberculosis H37Ra ATCC 25177 assessed as inhibition of bacterial growth incubated for 12 days by Alamar Blue based fluorescence analysis; format: functional; conditions: H37Ra ATCC 25177, 288 h, time 12 day
[5] = Toxicity against Zebrafish embryo assessed as embryo survival at 5 uM incubated for 5 days and measured daily; design: species or system Danio rerio; conditions: zebrafish embryos, time 5 day
[6] = Lipophilicity, logD of the compound in octanol and phosphate buffer at pH 7.4 at 66.7 uM by LC-MS/MS analysis; format: physicochemical; conditions: octanol/water, pH 7.4, 66.7 µM
[7] = molecular target: Glycogen synthase kinase-3 beta (Homo sapiens, UniProt P49841); assay: Binding affinity to human full length GSK-3 beta (M1 to T433 residues) expressed in mammalian expression system by KdELECT kinase assay; format: toxicity
CDK4/Cyclin D3 = CDK4/Cyclin D3 (Homo sapiens, UniProt P11802); assay: Binding affinity to human full length CDK4 (M1 to E303 residues) expressed in mammalian expression system/CyclinD3 by KdELECT kinase assay; format: toxicity
[8] = molecular target: Serine/threonine-protein kinase mTOR (Homo sapiens, UniProt P42345); assay: Binding affinity to human partial length mTOR (L1382 to W2549 residues) expressed in mammalian expression system by KdELECT kinase assay; format: toxicity
[9] = molecular target: Serine/threonine-protein kinase pim-1 (Homo sapiens, UniProt P11309); assay: Binding affinity to human partial length Pim1 (A15 to K313 residues ) expressed in bacterial expression system by KdELECT kinase assay; format: toxicity
[10] = molecular target: T1, Serine/threonine-protein kinase PknB; assay: Binding affinity to Mycobacterium tuberculosis partial length PknB (M1 to G279 residues) expressed in mammalian expression system by KdELECT kinase assay
[11] = Selectivity ratio of Kd for human partial length Pim1 (A15 to K313 residues ) expressed in bacterial expression system to Kd for Mycobacterium tuberculosis partial length PknB (M1 to G279 residues) expressed in mammalian expression system
[12] = Selectivity ratio of Kd for human full length GSK-3 beta (M1 to T433 residues) expressed in mammalian expression system to Kd for Mycobacterium tuberculosis partial length PknB (M1 to G279 residues) expressed in mammalian expression system
[13] = Selectivity ratio of Kd for human partial length mTOR (L1382 to W2549 residues) expressed in mammalian expression system to Kd for Mycobacterium tuberculosis partial length PknB (M1 to G279 residues) expressed in mammalian expression system
[14] = Selectivity ratio of Kd for human full length CDK4 (M1 to E303 residues) expressed in mammalian expression system/CyclinD3 to Kd for Mycobacterium tuberculosis partial length PknB (M1 to G279 residues) expressed in mammalian expression system

SMILES | Kd [1] [nM] | IC50 [2] [nM] | Ki [2] [nM] | IC50 [3] [nM] | CC50 (THP-1) [nM] | MIC [4] [µM] | survival at 120 h, 5 µM [5] [%] | logD [6] | Kd [7] [nM] | Kd (CDK4/Cyclin D3) [nM] | Kd [8] [nM] | Kd [9] [nM] | Kd [10] [nM] | Selectivity ratio [11] | Selectivity ratio [12] | Selectivity ratio [13] | Selectivity ratio [14]
CN1CCN(c2ccc(Nc3nccc(-c4cccc(F)c4)n3)cc2C(F)(F)F)CC1 | 710 | 6100 | 1800 | 24000 |  |  |  |  |  |  |  |  |  |  |  |  | 
CN1CCN(c2ccc(Nc3nccc(-c4ccc(C#N)cc4)n3)cc2C(F)(F)F)CC1 | 700 | 5100 | 1500 | 13000 |  |  |  |  |  |  |  |  |  |  |  |  | 
CNc1cc(-c2ccnc(Nc3ccc(N4CCN(C)CC4)c(C(F)(F)F)c3)n2)ccn1 | 920 | 9400 | 2700 | 39000 |  |  |  |  |  |  |  |  |  |  |  |  | 
Cc1ccc(-c2ccnc(Nc3ccc(N4CCN(C)CC4)c(C(F)(F)F)c3)n2)cc1 | 30 | 1600 | 440 | > 40000 | 4940 | 12 (≈ 5.13 µg/mL) | 0 | > 5.85 |  |  |  |  |  |  |  |  | 
CN1CCN(c2ccc(Nc3nccc(-c4cccnc4)n3)cc2C(F)(F)F)CC1 | 61 | 1700 | 470 | 9300 | 1060 | 100 (≈ 41.4 µg/mL) | 56 | 3.53 |  |  |  |  |  |  |  |  | 
CN1CCN(c2ccc(Nc3nccc(-c4ccnc(Cl)c4)n3)cc2C(F)(F)F)CC1 | 48 | 1100 | 290 | 7200 | 1140 | 25 (≈ 11.2 µg/mL) | 89 | 4.3 | 2600 | 440 | 690 | 2200 | 47 |  |  |  | 
COc1cccc(-c2ccnc(Nc3ccc(N4CCN(C)CC4)c(C(F)(F)F)c3)n2)c1 | 660 | 6600 | 1900 | 10000 |  |  |  |  |  |  |  |  |  |  |  |  | 
CN1CCN(c2ccc(Nc3nccc(-c4ccc(F)cc4)n3)cc2C(F)(F)F)CC1 | 3000 | > 40000 | > 12000 | 12000 |  |  |  |  |  |  |  |  |  |  |  |  | 
CN1CCN(c2ccc(Nc3nccc(-c4ccc5ccccc5c4)n3)cc2C(F)(F)F)CC1 | 430 | 3400 | 970 | > 40000 | 3040 | 6 (≈ 2.78 µg/mL) | 100 | > 5.7 |  |  |  |  |  |  |  |  | 
CN1CCN(c2ccc(Nc3nccc(-c4ccc(Cl)cc4)n3)cc2C(F)(F)F)CC1 | 2200 | 8100 | 2400 | > 40000 |  |  |  |  |  |  |  |  |  |  |  |  | 
CN1CCN(c2ccc(Nc3nccc(-c4cccc(Cl)c4)n3)cc2C(F)(F)F)CC1 | 340 | 4300 | 1200 | > 40000 | 5280 | 12 (≈ 5.37 µg/mL) | 57 | > 6 | 9300 | 3000 | > 10000 | > 10000 | 180 |  |  |  | 
CN1CCN(c2ccc(Nc3nccc(-c4ccccc4)n3)cc2C(F)(F)F)CC1 | 1200 | 4600 | 1300 | > 40000 | 4100 | 25 (≈ 10.3 µg/mL) | 96 | 4.8 | 2800 | 1200 | > 10000 | 5200 | 430 |  |  |  | 
CN1CCN(c2ccc(Nc3nccc(-c4ccnc(NCc5ccccc5)c4)n3)cc2C(F)(F)F)CC1 | 2100 | 7900 | 2300 | 7300 |  |  |  |  |  |  |  |  |  |  |  |  | 
CN1CCN(c2ccc(Nc3nccc(-c4cccc(C#N)c4)n3)cc2C(F)(F)F)CC1 | 73 | 2500 | 700 | > 40000 |  |  |  |  |  |  |  |  |  |  |  |  | 
CN1CCN(c2ccc(Nc3nccc(-c4ccc([N+](=O)[O-])cc4)n3)cc2C(F)(F)F)CC1 | 410 | 3800 | 1100 | 180 |  |  |  |  |  |  |  |  |  |  |  |  | 
CN1CCN(c2ccc(Nc3nccc(-c4cccc([N+](=O)[O-])c4)n3)cc2C(F)(F)F)CC1 | 34 | 1200 | 320 | > 40000 | 3890 | 19 (≈ 8.71 µg/mL) | 0 | 4.5 | 3800 | 910 | 5800 | 2200 | 19 | > 100 | > 100 | > 100 | 48
